Data set [1] has as its system BV-2. In words: Inhibition of LPS-induced TNF-alpha production in […] BV2 cells at 250 ug/ml preincubated for 4 hrs followed by LPS stimulation and measured after 24 hrs by ELISA. The data set is classed as functional, cell-based. The settings on record: Mus musculus. (In general: An ELISA detects its analyte on a solid surface through an enzyme-linked reagent.)
The subject of data set [2] is BV-2. In words: Cytotoxicity against […] BV2 cells assessed as survival rate at 500 ug/ml. The data set is classed as cell-based. The settings on record: mouse.
The test system of data set [3] is BV-2. In words: Inhibition of LPS-induced IL-1beta production in […] BV2 cells at 250 ug/ml preincubated for 4 hrs followed by LPS stimulation and measured after 24 hrs by ELISA. Format: functional, cell-based. The settings on record: Mus musculus.
Data set [4] has as its system BV-2. In words: Cytotoxicity against […] BV2 cells assessed as survival rate at 250 ug/ml. Format: cell-based. To be noted: mouse.
The subject of data set [5] is BV-2. The data set is described as follows: Inhibition of LPS-induced NO release in […] BV2 cells at 20 ug/ml preincubated for 4 hrs followed by LPS stimulation and measured after 24 hrs by Griess reagent based assay. The data set is classed as functional, cell-based. The settings on record: Mus musculus. Background: The Griess reaction detects nitrite, a stable product of nitric oxide.

In data set [6] the test system is BV-2. The data set is described as follows: Inhibition of LPS-induced IL6 production in […] BV2 cells at 20 ug/ml preincubated for 4 hrs followed by LPS stimulation and measured after 24 hrs by ELISA. To be noted: Mus musculus. Format: functional, cell-based.
The test system of data set [7] is BV-2. In words: Inhibition of LPS-induced JNK-46 activation in […] BV2 cells preincubated for 4 hrs followed by LPS stimulation and measured after 24 hrs by Western blot analysis. Format: functional, cell-based. To be noted: Mus musculus.
In data set [8] the test system is BV-2. In words: Inhibition of LPS-induced IL6 production in […] BV2 cells preincubated for 4 hrs followed by LPS stimulation and measured after 24 hrs by ELISA. Format: functional, cell-based. To be noted: Mus musculus.
Data set [9] relates to BV-2. In words: Inhibition of LPS-induced JNK-54 phosphorylation in […] BV2 cells at 62.5 to 250 ug/ml preincubated for 4 hrs followed by LPS stimulation and measured after 24 hrs by Western blot analysis. The data set is classed as functional, cell-based. The settings on record: Mus musculus. On the technique in general: A western blot detects proteins with antibodies after separation by electrophoresis.

Data set [10] relates to BV-2. In words: Inhibition of LPS-induced NF-kappaB/p65 nuclear translocation in […] BV2 cells assessed as reduction in p65/NFkappaB level at 250 ug/ml by DAPI staining based fluorescence microscopic analysis. The data set is classed as functional, cell-based. The settings on record: Mus musculus.
Data set [11] concerns BV-2. The data set is described as follows: Inhibition of LPS-induced IL-1beta production in […] BV2 cells preincubated for 4 hrs followed by LPS stimulation and measured after 24 hrs by ELISA. The data set is classed as functional, cell-based. The settings on record: Mus musculus.
For data set [12], the system named is BV-2. In words: Inhibition of LPS-induced NO release in […] BV2 cells at 62.5 to 250 ug/ml preincubated for 4 hrs followed by LPS stimulation and measured after 24 hrs by Griess reagent based assay. Format: functional, cell-based. To be noted: Mus musculus.
In data set [13] the test system is BV-2. The data set is described as follows: Inhibition of LPS-induced JNK-54 activation in […] BV2 cells preincubated for 4 hrs followed by LPS stimulation and measured after 24 hrs by Western blot analysis. Format: functional, cell-based. The settings on record: Mus musculus.
The subject of data set [14] is BV-2. In words: Cytotoxicity against […] BV2 cells assessed as survival rate at 125 ug/ml. Format: cell-based. To be noted: mouse.
The subject of data set [15] is BV-2. In words: Inhibition of LPS-induced iNOS expression in […] BV2 cells at 250 ug/ml preincubated for 4 hrs followed by LPS stimulation and measured after 24 hrs by Western blot analysis. To be noted: Mus musculus. Format: functional, cell-based.
In data set [16] the test system is BV-2. The data set is described as follows: Inhibition of LPS-induced JNK-46 phosphorylation in […] BV2 cells at 62.5 to 250 ug/ml preincubated for 4 hrs followed by LPS stimulation and measured after 24 hrs by Western blot analysis. The settings on record: Mus musculus. Format: functional, cell-based.
Data set [17] deals with BV-2. In words: Inhibition of LPS-induced TNF-alpha production in […] BV2 cells preincubated for 4 hrs followed by LPS stimulation and measured after 24 hrs by ELISA. Format: functional, cell-based. To be noted: Mus musculus.

The text below walks through data of ChEMBL document CHEMBL4627377, “Betulin isolated from Pyrola incarnata Fisch. inhibited lipopolysaccharide (LPS)-induced neuroinflammation with the guidance of computer-aided drug design” (Bioorg Med Chem Lett, 2020).

SMILES strings stand for the structures. Active and inactive are the calls of the source. No cut-off for these calls is given here.

For the compound `C[C@H]1[C@H](C)CC[C@]2(C(=O)O)CC[C@]3(C)C(=CC[C@@H]4[C@@]5(C)CC[C@H](O)C(C)(C)[C@@H]5CC[C@]43C)[C@H]12` [URSOLIC ACID], the inhibition result with BV-2 [1] and in the data set with BV-2 [3] was “Active” in each case. In addition, the Activity result with BV-2 [2] was “Non-Toxic”.
As to `C[C@@H]1CC[C@]2(C(=O)O)CC[C@]3(C)C(=CC[C@@H]4[C@@]5(C)CC[C@H](O)[C@@](C)(CO)[C@@H]5CC[C@]43C)[C@@H]2[C@]1(C)O` [ROTUNDIC ACID], the inhibition entry with BV-2 [1] and in the data set with BV-2 [3] was “Active” in each case. The Activity entry with BV-2 [4] is on record as “Non-Toxic”.
`COc1cc2c(cc1OC)C(=O)C(CC1CCN(Cc3ccccc3)CC1)C2` (configuration not stated): the inhibition entry in the data set with BV-2 [5] and in the data set on BV-2 [6] was “Active” each time.
For the compound `C[C@@H]1CC[C@]2(C(=O)O[C@H]3O[C@@H](CO)[C@H](O)[C@@H](O)[C@@H]3O)CC[C@]3(C)C(=CC[C@@H]4[C@@]5(C)CC[C@H](O)[C@@](C)(CO)[C@@H]5CC[C@]43C)[C@@H]2[C@]1(C)O`, the inhibition entry in the data set with BV-2 [1] and in the data set with BV-2 [3] was “Active” each time. For the same compound, the Activity entry with BV-2 [4] is listed as “Non-Toxic”.
As for `C=C(C)[C@@H]1CC[C@]2(CO)CC[C@]3(C)[C@H](CC[C@@H]4[C@@]5(C)CC[C@H](O)C(C)(C)[C@@H]5CC[C@]43C)[C@@H]12` [BETULIN], the inhibition entry in the data set on BV-2 [7], in the data set on BV-2 [8], in the data set on BV-2 [11], in the data set with BV-2 [13] and in the data set on BV-2 [17] was “Dose-dependent effect” throughout. Moreover, the inhibition result with BV-2 [9], with BV-2 [10], in the data set with BV-2 [12], with BV-2 [15] and with BV-2 [16] was “Active” throughout. Also, the Activity result in the data set on BV-2 [14] was “Non-Toxic”.
